Reference: publication PMC9486168, “Protein-protein interaction-based high throughput screening for adenylyl cyclase 1 inhibitors: Design, implementation, and discovery of a novel chemotype” (Frontiers in Pharmacology, 2022)
Where two headings read alike, the source gives them in different places.

Tests used:
CaM = biological target: T1, CaM (Homo sapiens, UniProt P0DP23); assay: 1H-15N HSQC NMR of 15N-CaM with compound; format: binding; conditions: 5 equivalent molar excess over 100 μM CaM
T1 construct: 6X-His-GST (N, cleaved yes); made in house; host or cells: E. coli BL21-CodonPlus (DE3)-RIPL in M9 minimal media with 15NH4Cl
Procedure: All NMR samples contained 100 μM ^15N-CaM in 20 mM HEPES pH 7.4, 100 mM KCl, 10 mM CaCl2, 10% D2O, and 5% DMSO. Initial spectra were collected for CaM alone before individual compounds were titrated to observe chemical shift perturbations. All spectra were acquired at 298 K using a 600 MHz Bruker Avance NEO NMR spectrometer with a triple resonance gradient cryoprobe. NMR spectra were processed using NMRPipe and analyzed using NMRFAM-SPARKY.

HEK293T cells = assay: CellTiter-Glo 2.0 cell viability assay; format: cell-based; conditions: ∼300 μM;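 also: luminescence read-out after 30 min compound exposure at 37 °C in HEPES-buffered HBSS, scaled to vehicle-treated cells as 100% and cell-free buffer wells as 0%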
[1] = CellTiter-Glo 2.0 cell viability assay; format: cell-based; conditions: human, HEK293T cells, pH 7.4; at the compound's AC1/CaM NanoBiT IC50 concentration; read-out: % Viable Cells at AC1 IC50;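 also: luminescence read-out after 30 min compound exposure at 37 °C in HEPES-buffered HBSS, scaled to vehicle-treated cells as 100% and cell-free buffer wells as 0%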
AC1 = biological target: T2, AC1 (Homo sapiens, UniProt Q08828); assay: cAMP accumulation assay, AC1-HEK Δ3/6 KO cells; format: cell-based
T2 construct: expressed in transfected cells
Procedure: Cells were then incubated for 1 h at 37°C and 5% CO2. Cells were then treated with varying concentrations of inhibitors for 30 min, followed by treatment with calcium ionophore A23187 (3 μM) in 500 μM 3-isobutyl-1-methylxanthine (IBMX), a phosphodiesterase inhibitor, for 1 h at RT (Sigma Aldrich, St. Louis, MO). Finally, Cisbio HTRF detection reagents were added and incubated for 1–24 h at RT. Plates were read according to manufacturer’s protocol on an HTRF-compatible plate reader at 620 and 665 nm cAMP concentrations were interpolated from a cAMP standard curve. […] For cytotoxicity assays, compounds were tested at 30 μM and this protocol was used with the exception of detection reagents; CellTiter-Glo 2.0 reagent was used according to manufacturer’s protocol and luminescence was read on the Synergy Neo2 plate reader. Data are normalized to cells treated with vehicle (100%) or 2% tween (0%) and are represented as the percent of vehicle, from the average of three independent experiments (N = 3).

AC2 = biological target: T3, AC2 (Homo sapiens, UniProt Q08462); assay: cAMP accumulation assay, AC2-HEK Δ3/6 KO cells; format: cell-based; conditions: read-out: % Inhibited at AC2 ± SEM
T3 construct: expressed in transfected cells
Procedure: (§1) Cryopreserved HEK293 cells with AC3 and AC6 knocked out, and stably expressing AC1, AC2, AC5, or AC8 (AC1-HEK Δ3/6 KO, AC2-HEK Δ3/6 KO, AC5-HEK Δ3/6 KO, or AC8-HEK Δ3/6 KO cells, respectively; [Soto-Velasquez et al., 2018]) were plated at 5,000 cells/well. Cells were then incubated for 1 h at 37°C and 5% CO2. Cells were then treated with varying concentrations of inhibitors for 30 min, followed by treatment with calcium ionophore A23187 (3 μM) in 500 μM 3-isobutyl-1-methylxanthine (IBMX), a phosphodiesterase inhibitor, for 1 h at RT (Sigma Aldrich, St. Louis, MO). Finally, Cisbio HTRF detection reagents were added and incubated for 1–24 h at RT. Plates were read according to manufacturer’s protocol on an HTRF-compatible plate reader at 620 and 665 nm cAMP concentrations were interpolated from a cAMP standard curve. […] For cytotoxicity assays, compounds were tested at 30 μM and this protocol was used with the exception of detection reagents; CellTiter-Glo 2.0 reagent was used according to manufacturer’s protocol and luminescence was read on the Synergy Neo2 plate reader. Data are normalized to cells treated with vehicle (100%) or 2% tween (0%) and are represented as the percent of vehicle, from the average of three independent experiments (N = 3).

AC5 = biological target: T4, AC5 (Homo sapiens, UniProt O95622); assay: cAMP accumulation assay, AC5-HEK Δ3/6 KO cells; format: cell-based; conditions: read-out: % Inhibited at AC5 ± SEM
T4 construct: expressed in transfected cells
Procedure: as §1

AC8 = biological target: T5, AC8 (Homo sapiens, UniProt P40145); assay: cAMP accumulation assay, AC8-HEK Δ3/6 KO cells; format: cell-based; conditions: CDI analog SAR set, 3 μM A23187; read-out: IC50 (μM) ± SEM AC8
T5 construct: expressed in transfected cells
Procedure: as §1

AC8/CaM PPI = biological target: T6, AC8/CaM PPI (Homo sapiens, UniProt P0DP23); assay: AC8/CaM NanoBiT assay in HEK293T cells; format: cell-based, rat
T6 construct: confirmed as an AC1/AC8 non-selective hit against full-length AC1- and AC8-CaM in the NanoBiT assay; The hCaM residues 1–149, residues 1–1,248 of rat AC8 (rAC8); expressed in transfected cells; host or cells: HEK293T, transient transfection

AC8-C2b/CaM = biological target: T7, AC8-C2b/CaM (Homo sapiens, UniProt P0DP23); assay: AC8-C2b/CaM FP counterscreen assay; format: binding;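 also: fluorescence polarization of AC peptide binding to GST-CaM in HEPES buffer with KCl and 50 µM CaCl2, compound preincubated 30 min with GST-CaM, DMSO and calmidazolium as controls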
T7 construct: made in house; host or cells: E. coli BL21-CodonPlus (DE3)-RIPL

AC8-Nt/CaM = biological target: T8, AC8-Nt/CaM (Homo sapiens, UniProt P0DP23); assay: AC8-Nt/CaM FP counterscreen assay; format: binding;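 also: fluorescence polarization of AC peptide binding GST-CaM in HEPES buffer with CaCl2, compound preincubated with CaM 30 min, peptide read after 2 h at room temperature in dark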
T8 construct: made in house; host or cells: E. coli BL21-CodonPlus (DE3)-RIPL

[2] = Cytotoxicity assay (CellTiter-Glo 2.0) in AC1-HEK Δ3/6 KO cells; format: cell-based; conditions: human, percent of vehicle, read-out: % Viable Cells at AC1 30 μM
Procedure: as §1

AC1-C1b/CaM = biological target: T9, AC1-C1b/CaM (Homo sapiens, UniProt P0DP23); assay: AC1-C1b/CaM fluorescence polarization (FP) assay; format: binding
T9 construct: made in house; host or cells: E. coli BL21-CodonPlus (DE3)-RIPL

AC1/CaM PPI = biological target: T10, AC1/CaM PPI (Homo sapiens, UniProt P0DP23); assay: AC1/CaM NanoBiT assay in HEK293T cells; format: cell-based
T10 construct: human AC1 (hAC1) residues 1–1,118 were cloned; The hCaM residues 1–149, residues 1–1,248 of rat AC8 (rAC8); expressed in transfected cells; host or cells: HEK293T, transient transfection

[3] = Cheng-Prusoff from FP IC50 and Kd, n/i given where none
[4] = ratio >1: more potent in AC1/CaM FP

T2 sequence (Q08828 whole entry): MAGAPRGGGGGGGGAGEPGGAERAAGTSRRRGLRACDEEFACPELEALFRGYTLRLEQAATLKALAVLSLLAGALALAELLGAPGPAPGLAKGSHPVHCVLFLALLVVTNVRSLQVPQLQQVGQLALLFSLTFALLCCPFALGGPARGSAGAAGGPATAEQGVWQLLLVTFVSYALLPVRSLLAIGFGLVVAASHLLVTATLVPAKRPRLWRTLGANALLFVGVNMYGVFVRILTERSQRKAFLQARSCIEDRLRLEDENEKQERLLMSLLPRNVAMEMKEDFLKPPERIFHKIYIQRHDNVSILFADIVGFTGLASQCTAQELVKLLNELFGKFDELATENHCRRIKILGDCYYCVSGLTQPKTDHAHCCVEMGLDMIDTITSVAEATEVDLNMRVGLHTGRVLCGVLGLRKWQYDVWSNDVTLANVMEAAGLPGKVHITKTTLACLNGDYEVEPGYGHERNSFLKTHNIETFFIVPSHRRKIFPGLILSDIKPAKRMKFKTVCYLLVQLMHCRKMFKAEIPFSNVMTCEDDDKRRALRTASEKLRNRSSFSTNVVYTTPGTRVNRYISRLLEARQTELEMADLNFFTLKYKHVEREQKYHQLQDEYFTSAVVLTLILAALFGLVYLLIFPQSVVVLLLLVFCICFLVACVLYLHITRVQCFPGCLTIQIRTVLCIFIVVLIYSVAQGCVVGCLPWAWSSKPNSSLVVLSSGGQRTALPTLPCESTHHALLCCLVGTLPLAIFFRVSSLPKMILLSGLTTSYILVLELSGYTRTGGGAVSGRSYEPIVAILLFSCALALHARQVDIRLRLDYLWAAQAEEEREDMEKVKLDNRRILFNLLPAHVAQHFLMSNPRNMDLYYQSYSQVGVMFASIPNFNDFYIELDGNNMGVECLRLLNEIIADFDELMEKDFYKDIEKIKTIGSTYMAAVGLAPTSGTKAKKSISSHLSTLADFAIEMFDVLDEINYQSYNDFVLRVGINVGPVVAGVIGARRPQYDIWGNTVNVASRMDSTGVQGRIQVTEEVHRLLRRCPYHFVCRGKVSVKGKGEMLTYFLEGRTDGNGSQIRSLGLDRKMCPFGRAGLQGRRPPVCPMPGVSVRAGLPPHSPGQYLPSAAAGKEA
T5 sequence (P40145 whole entry, species assumed): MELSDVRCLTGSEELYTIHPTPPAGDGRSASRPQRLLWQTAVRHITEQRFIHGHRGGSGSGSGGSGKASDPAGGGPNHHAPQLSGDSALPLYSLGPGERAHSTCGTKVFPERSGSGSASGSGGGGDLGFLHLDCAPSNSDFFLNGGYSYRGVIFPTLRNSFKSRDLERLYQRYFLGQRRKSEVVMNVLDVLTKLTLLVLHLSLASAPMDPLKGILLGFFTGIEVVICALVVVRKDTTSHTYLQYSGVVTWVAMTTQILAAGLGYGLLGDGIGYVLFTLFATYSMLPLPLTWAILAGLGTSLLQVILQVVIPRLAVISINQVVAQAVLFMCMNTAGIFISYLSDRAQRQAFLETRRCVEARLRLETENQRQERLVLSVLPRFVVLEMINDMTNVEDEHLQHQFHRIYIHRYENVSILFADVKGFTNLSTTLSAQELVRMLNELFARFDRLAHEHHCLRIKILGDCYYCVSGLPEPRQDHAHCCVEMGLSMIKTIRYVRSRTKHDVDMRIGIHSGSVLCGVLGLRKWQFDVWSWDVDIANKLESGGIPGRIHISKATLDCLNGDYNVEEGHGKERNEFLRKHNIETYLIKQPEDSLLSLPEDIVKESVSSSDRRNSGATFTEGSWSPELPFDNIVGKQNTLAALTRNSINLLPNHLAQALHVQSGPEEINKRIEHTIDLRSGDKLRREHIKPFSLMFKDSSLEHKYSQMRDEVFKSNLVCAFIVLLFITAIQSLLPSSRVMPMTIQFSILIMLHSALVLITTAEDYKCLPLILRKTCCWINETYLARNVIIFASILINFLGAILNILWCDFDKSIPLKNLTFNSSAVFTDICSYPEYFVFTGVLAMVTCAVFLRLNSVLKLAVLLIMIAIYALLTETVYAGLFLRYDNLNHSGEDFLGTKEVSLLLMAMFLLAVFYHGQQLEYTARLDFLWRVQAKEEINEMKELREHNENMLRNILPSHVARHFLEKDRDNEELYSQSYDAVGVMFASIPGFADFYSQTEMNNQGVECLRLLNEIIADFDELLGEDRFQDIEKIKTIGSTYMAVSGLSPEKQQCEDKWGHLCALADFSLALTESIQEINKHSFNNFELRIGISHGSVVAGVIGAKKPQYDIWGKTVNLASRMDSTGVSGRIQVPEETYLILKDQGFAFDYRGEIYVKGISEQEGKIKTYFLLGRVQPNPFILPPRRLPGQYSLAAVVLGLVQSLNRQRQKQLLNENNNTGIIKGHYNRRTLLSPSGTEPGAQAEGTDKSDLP
T3 sequence (Q08462 whole entry): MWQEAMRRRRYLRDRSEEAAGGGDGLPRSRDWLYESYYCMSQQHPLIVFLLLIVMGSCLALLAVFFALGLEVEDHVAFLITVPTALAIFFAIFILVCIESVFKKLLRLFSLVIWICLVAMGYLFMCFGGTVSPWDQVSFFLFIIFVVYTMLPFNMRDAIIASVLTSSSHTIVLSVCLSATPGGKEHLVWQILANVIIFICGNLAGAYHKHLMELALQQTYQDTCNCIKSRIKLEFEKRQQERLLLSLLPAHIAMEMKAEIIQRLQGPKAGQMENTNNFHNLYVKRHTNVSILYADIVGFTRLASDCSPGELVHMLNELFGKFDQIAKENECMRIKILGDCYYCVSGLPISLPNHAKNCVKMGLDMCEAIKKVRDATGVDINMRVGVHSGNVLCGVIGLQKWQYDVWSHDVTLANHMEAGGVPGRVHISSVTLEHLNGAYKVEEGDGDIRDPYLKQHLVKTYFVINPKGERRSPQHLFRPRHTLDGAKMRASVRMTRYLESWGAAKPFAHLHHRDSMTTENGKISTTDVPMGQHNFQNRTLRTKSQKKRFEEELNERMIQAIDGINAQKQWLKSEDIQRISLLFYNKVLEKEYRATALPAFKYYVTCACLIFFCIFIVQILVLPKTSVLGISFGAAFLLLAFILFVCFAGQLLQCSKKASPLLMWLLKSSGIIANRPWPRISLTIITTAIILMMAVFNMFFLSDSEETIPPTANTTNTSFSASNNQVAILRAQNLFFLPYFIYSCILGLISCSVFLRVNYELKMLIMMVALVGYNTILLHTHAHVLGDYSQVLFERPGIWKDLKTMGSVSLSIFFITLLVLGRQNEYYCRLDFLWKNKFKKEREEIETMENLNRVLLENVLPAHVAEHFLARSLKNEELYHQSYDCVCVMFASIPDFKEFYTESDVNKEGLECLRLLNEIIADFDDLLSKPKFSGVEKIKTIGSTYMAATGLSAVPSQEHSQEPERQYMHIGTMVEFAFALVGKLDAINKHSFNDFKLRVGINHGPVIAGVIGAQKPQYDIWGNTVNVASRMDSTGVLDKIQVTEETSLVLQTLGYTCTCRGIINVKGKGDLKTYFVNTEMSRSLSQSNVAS
T4 sequence (O95622 whole entry, species assumed): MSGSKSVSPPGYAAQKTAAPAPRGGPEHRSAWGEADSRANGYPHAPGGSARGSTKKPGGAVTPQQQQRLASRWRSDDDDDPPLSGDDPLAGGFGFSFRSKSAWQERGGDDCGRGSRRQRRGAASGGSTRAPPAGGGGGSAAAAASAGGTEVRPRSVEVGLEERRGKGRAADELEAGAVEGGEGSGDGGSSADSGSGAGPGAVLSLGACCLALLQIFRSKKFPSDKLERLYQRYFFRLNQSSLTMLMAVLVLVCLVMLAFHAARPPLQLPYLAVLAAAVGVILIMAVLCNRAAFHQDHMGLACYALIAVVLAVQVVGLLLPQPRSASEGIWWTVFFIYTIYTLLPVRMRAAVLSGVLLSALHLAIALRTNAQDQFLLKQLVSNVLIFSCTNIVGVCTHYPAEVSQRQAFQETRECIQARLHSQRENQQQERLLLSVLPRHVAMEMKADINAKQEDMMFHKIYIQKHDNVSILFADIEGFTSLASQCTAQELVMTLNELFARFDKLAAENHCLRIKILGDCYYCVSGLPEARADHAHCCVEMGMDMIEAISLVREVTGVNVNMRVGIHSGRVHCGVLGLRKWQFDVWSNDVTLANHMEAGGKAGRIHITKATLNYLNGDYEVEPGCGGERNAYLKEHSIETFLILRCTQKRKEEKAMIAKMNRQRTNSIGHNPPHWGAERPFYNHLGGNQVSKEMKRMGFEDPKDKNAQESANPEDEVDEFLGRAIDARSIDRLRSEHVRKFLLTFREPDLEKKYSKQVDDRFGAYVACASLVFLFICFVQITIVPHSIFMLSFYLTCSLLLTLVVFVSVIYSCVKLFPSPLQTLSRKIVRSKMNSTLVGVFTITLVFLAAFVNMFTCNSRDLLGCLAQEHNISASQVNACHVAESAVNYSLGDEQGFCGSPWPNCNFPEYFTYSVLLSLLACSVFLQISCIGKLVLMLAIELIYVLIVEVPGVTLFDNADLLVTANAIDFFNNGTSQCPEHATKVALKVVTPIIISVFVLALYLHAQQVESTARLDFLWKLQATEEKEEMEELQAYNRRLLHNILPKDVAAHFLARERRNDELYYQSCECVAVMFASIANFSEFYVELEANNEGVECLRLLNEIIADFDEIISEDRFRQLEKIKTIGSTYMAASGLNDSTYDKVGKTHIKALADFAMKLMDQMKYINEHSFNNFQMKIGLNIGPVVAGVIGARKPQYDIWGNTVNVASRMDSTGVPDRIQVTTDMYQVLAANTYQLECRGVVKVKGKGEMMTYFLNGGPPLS

Structure (SMILES): CCc1cc(C(c2cccs2)N2CCN(C)CC2)c(NC(=O)c2ccco2)s1 (stereo not shown) [Compound 15]
- chemical shift perturbations (CSP) of 15N-CaM (CaM): several peaks were broadened by intermediate exchange and disappeared
- cell viability at ∼300 μM (HEK293T cells): decrease in cell viability
- viability at 30 min [1]: 100%
- IC50 (AC1; CDI analog SAR set, 3 μM A23187, read-out: IC50 (μM) ± SEM AC1): 4.36 ± 0.32 µM
- inhibition of AC1 activity (AC1; CDI analog set, maximal inhibition of A23187 response): 100%
- inhibition of AC1 activity (efficacy) (AC1; initial characterization of hits, data not shown): ~75%
- IC50 (AC1; initial examination, 10,000 cells per well, 3 μM A23187, 1 h RT, read-out: AC1 IC50 ± SEM): 4.88 ± 2.14 µM
- inhibition at 30 µM (AC2): 59 ± 14%
- inhibition at 30 µM (AC5): 47 ± 10%
- IC50 (AC8): 3.9 ± 1.83 µM
- IC50 (AC8/CaM PPI; HEK293T, thapsigargin-stimulated, AUC, read-out: Nanobit: AC8-CaM IC50 (μM ± SEM)): 33.3 ± 1.18 µM
- inhibition of AC8-CaM interaction in NanoBiT (AC8/CaM PPI; full-length proteins): 100%
- Ki (μM) AC8 C2b (AC8-C2b/CaM; [3]): n/i
- Ki ratio (AC8-C2b/AC1) (AC8-C2b/CaM; [4]): AC1 Selective
- Ki (μM) AC8 NT (AC8-Nt/CaM; [3]): n/i
- Ki ratio (AC8 NT/AC1) (AC8-Nt/CaM; [4]): AC1 Selective
- viability at 30 min, 30 μM [2]: 43%
- IC50 (AC1-C1b/CaM; 100 nM AC1-C1b, 100 nM GST-CaM, 95% CI in brackets): 22.1 µM
- Ki (AC1-C1b/CaM; Cheng-Prusoff from FP IC50 and Kd): 5.2 µM
- AC1-CaM FP % inhib (AC1-C1b/CaM; relative to 100 μM CDZ (100% inhibition), highest concentration tested): 58%
- IC50 (AC1/CaM PPI; HEK293T, thapsigargin-stimulated, AUC, read-out: Nanobit: AC1-CaM IC50 (μM ± SEM)): 26.1 ± 1.17 µM
- inhibition of AC1-CaM interaction in NanoBiT (AC1/CaM PPI; full-length proteins): 100%
